The record followed here is patent publication US9512128B2 (BAYER CROPSCIENCE AG, priority 2012, dated 2016).

Like-named read-outs stand apart in the source and are kept apart here.

Data set [1] in a line: log P by HPLC on reversed-phase columns (C 18), EEC directive 79/831 Annex V.A8. It counts as physicochemical. Conditions: for logP[a]: method [a]; for logP[b]: method [b]; for chromatographic logP: reversed-phase C18 HPLC column. The procedure, abridged: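 Measured by reversed-phase C18 HPLC (LC-MS) with a linear 10→95% acetonitrile gradient. Acidic: pH 2.7, 0.1% formic acid. Neutral: pH 7.8, 0.001 M ammonium bicarbonate.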

Data set [2] has as its system larvae of the mustard beetle (Phaedon cochleariae). The experiment in a line: Phaedon cochleariae spray test (PHAECO). In kind it is in vivo. The settings on record: application rate 500 g/ha, after 7 days, Chinese cabbage leaf discs. The method, then: 2. Phaedon cochleariae Spray Test (PHAECO)
(§1) • Solvents: 78.0 parts by weight of acetone • 1.5 part by weight of dimethylformamide • Emulsifier: 0.5 part by weight of alkylaryl polyglycol ether
(§2) To produce a suitable preparation of active compound, 1 part by weight of active compound is mixed with the stated amounts of solvents and emulsifier, and the concentrate is diluted with emulsifier-containing water to the desired concentration.
After 7 days, the efficacy in % is determined. 100% means that all of the beetle larvae have been killed; 0% means that none of the beetle larvae have been killed.

Data set [3] deals with caterpillars of the armyworm (Spodoptera frugiperda). The data set is described as follows: Spodoptera frugiperda spray test (SPODFR). In kind it is in vivo. Conditions: application rate 500 g/ha, after 7 days, maize leaf discs. The method, then: 3. Spodoptera frugiperda Spray Test (SPODFR)
as §1, §2
Leaf discs of maize (Zea mays) are sprayed with an active compound preparation of the desired concentration and, after drying, populated with caterpillars of the armyworm (Spodoptera frugiperda).
After 7 days, the efficacy in % is determined. 100% means that all of the caterpillars have been killed; 0% means that none of the caterpillars have been killed.

The subject of data set [4] is southern root-knot nematode (Meloidogyne incognita). The data set is described as follows: Meloidogyne incognita test (MELGIN). It counts as in vivo. Conditions: application rate 20 ppm, after 14 days, lettuce. The procedure, abridged:
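Compound in acetone diluted with water, added to sand with M. incognita egg/larvae suspension and lettuce seeds. Root galls assessed after 14 days; effect in % where 100% means no galls and 0% equals untreated control.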

Data set [5] relates to green peach aphid (Myzus persicae). The experiment in a line: Myzus persicae spray test (MYZUPE). Conditions: application rate 500 g/ha, after 6 days, Chinese cabbage leaf discs. In kind it is in vivo. The protocol: 1. Myzus persicae Spray Test (MYZUPE)
• Solvents: 78 parts by weight of acetone • 1.5 part by weight of dimethylformamide • Emulsifier: 0.5 part by weight of alkylaryl polyglycol ether
as §2
Discs of Chinese cabbage leaves (Brassica pekinensis) infested by all stages of the green peach aphid (Myzus persicae) are sprayed with an active compound preparation of the desired concentration.
After 6 days, the efficacy in % is determined. 100% here means that all of the aphids have been killed; 0% means that no aphids have been killed.

Data set [6] deals with greenhouse red spider mite (Tetranychus urticae). The experiment in a line: Tetranychus urticae spray test, OP-resistant (TETRUR). In kind it is in vivo. Conditions: application rate 500 g/ha, after 6 days, bean leaf discs. The procedure, abridged:
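Bean leaf discs infested with all stages of an OP-resistant strain are sprayed with compound in acetone/DMF with alkylaryl polyglycol ether emulsifier, diluted in water; % mortality after 6 days (100% = all mites killed).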

In data set [7] the test system is cattle ticks (Boophilus microplus). The experiment in a line: Boophilus microplus injection test (BOOPMI Inj). The settings on record: 20 μg/animal, injection into the abdomen, assessed after 7 days. In kind it is in vivo. The method, then: 6. Boophilus microplus Injection Test (BOOPMI Inj)
• Solvent: dimethyl sulphoxide
To produce a suitable preparation of active compound, 10 mg of active compound are mixed with 0.5 ml of solvent, and the concentrate is diluted with solvent to the desired concentration.
1 μl of the active compound solution is injected into the abdomen of 5 fed adult female cattle ticks (Boophilus microplus). The animals are transferred into dishes and kept in a climate-controlled room.
The activity is assessed after 7 days by laying of fertile eggs. Eggs whose fertility is not visible from the outside are stored in a climate-controlled cabinet until the larvae hatch after about 42 days. An efficacy of 100% means that none of the ticks has laid any fertile eggs; 0% means that all eggs are fertile.

Setting [8] is: pH 2.7, acidic range, pH 2.7, 0.1% aqueous formic acid / acetonitrile, read-out: log P[a].
Where [9] appears, read: pH 2.7, method [a], read-out: logP[a].
The mark [10] stands for this setting: pH 7.8, method [b], read-out: logP[b].
Where [11] appears, read: pH 7.8, neutral range, pH 7.8, 0.001 molar aqueous ammonium bicarbonate / acetonitrile, read-out: log P[b].

For the molecule `Cc1c2c(=O)n(-c3ccc(C(F)(F)F)c([S+]([O-])CC(F)(F)F)c3)cnc2nn1C` (stereo not drawn) [Compound 46], in data set [1], the “logP[a]” value was 2.11 and the “logP[b]” value worked out at 2.07. The “efficacy in % (beetle larvae killed)” value in data set [2] was 100%. Further, the “efficacy in % (caterpillars killed)” value in data set [3] is 100%. Also, in data set [4], the “nematicidal effect in % (formation of galls)” value (from here on “nematicidal effect in %”) is recorded as 90%.

As for `Cc1cc(F)c(-n2c(C)nc3nn(C)cc3c2=O)cc1[S+]([O-])CC(F)(F)F` (stereo not drawn) [Compound 175], the “efficacy in % (aphids killed)” value in data set [5] was found to be 100%. Further, the “efficacy in % (spider mites killed)” value in data set [6] amounted to 100%.

With `Cc1cc(F)c(-n2cnc3snc(C)c3c2=O)cc1[S+]([O-])CC(F)(F)F` (stereo not drawn) [Compound 204], in data set [2], the “efficacy in % (beetle larvae killed)” value was 83%. In addition, in data set [6], the “efficacy in % (spider mites killed)” value was 90%. In data set [4], the “nematicidal effect in %” value was 100%. The “efficacy in % (laying of fertile eggs)” value in data set [7] was determined as 100%.

Take `Cc1cc(F)c(-n2nnc3snc(C)c3c2=O)cc1SCC(F)(F)F` [Compound 205]: the “efficacy in % (beetle larvae killed)” value in data set [2] was 100%. In addition, in data set [3], the “efficacy in % (caterpillars killed)” value amounted to 100%. Also, in data set [6], the “efficacy in % (spider mites killed)” value is 100%.

For the molecule `Cc1nc2c(=O)n(-c3cc([S+]([O-])CC(F)(F)F)c(C)cc3F)cnc2s1` (stereo not drawn) [Compound 73], in data set [1], the “logP[a]” value was found to be 1.80 and the “logP[b]” value was determined as 1.77. Also, the “efficacy in % (spider mites killed)” value in data set [6] is 100%. Further, the “nematicidal effect in %” value in data set [4] amounted to 90%. Besides, the “efficacy in % (laying of fertile eggs)” value in data set [7] stood at 100%.

For `COc1ccc(-n2cnc3sccc3c2=O)cc1[S+]([O-])CC(F)(F)F` (stereo not drawn) [Compound 89], in data set [1], the “logP[a]” value turned out to be 1.91 and the “logP[b]” value is recorded as 1.91. The “efficacy in % (beetle larvae killed)” value in data set [2] came to 100%. Besides, the “nematicidal effect in %” value in data set [4] is 90%. Moreover, the “efficacy in % (laying of fertile eggs)” value in data set [7] amounted to 100%.

For `Cc1cc(F)c(-n2c(C)nc3cnn(C)c3c2=O)cc1[S+]([O-])CC(F)(F)F` (stereo not drawn) [Compound 41], in data set [1], the “logP[a]” value is 1.90 and the “logP[b]” value amounted to 1.88. The “efficacy in % (spider mites killed)” value in data set [6] worked out at 100%. Further, in data set [4], the “nematicidal effect in %” value was determined as 90%. The “efficacy in % (laying of fertile eggs)” value in data set [7] stood at 100%.

For `Cc1cc(F)c(-n2c(C)nc3c(cnn3C)c2=O)cc1[S+]([O-])CC(F)(F)F` (stereo not drawn) [Compound 15, 5-{2-Fluoro-4-methyl-5-[(2,2,2-trifluoroethyl)sulphinyl]phenyl}-1,6-dimethyl-1,5-dihydro-4H-pyrazolo[3,4-d]pyrimidin-4-one], the chromatographic logP stood at 1.85 in data set [1] (setting [8]), 1.85 in data set [1] (setting [9]), 1.84 in data set [1] (setting [10]) and 1.84 in data set [1] (setting [11]). Further, the “efficacy in % (spider mites killed)” value in data set [6] worked out at 90%. In data set [4], the “nematicidal effect in %” value turned out to be 90%. For the same molecule, the “efficacy in % (laying of fertile eggs)” value in data set [7] is reported as 100%.

Turning to `Cc1cc(F)c(-n2nnc3snc(C)c3c2=O)cc1[S+]([O-])CC(F)(F)F` (stereo not drawn) [Compound 206], the “efficacy in % (beetle larvae killed)” value in data set [2] is 100%. Moreover, in data set [3], the “efficacy in % (caterpillars killed)” value turned out to be 100%. In data set [6], the “efficacy in % (spider mites killed)” value came out at 100%. The “nematicidal effect in %” value in data set [4] is given as 100%.

Regarding `Cc1cc(F)c(-n2cnc3scnc3c2=O)cc1[S+]([O-])CC(F)(F)F` (stereo not drawn) [Compound 61], in data set [1], the “logP[a]” value amounted to 1.57 and the “logP[b]” value stood at 1.56. Further, in data set [2], the “efficacy in % (beetle larvae killed)” value came to 100%. In addition, the “efficacy in % (spider mites killed)” value in data set [6] is listed as 90%. Moreover, the “nematicidal effect in %” value in data set [4] was 90%. In data set [7], the “efficacy in % (laying of fertile eggs)” value stood at 100%.

As for `Cc1cc(F)c(-n2cnc3c(cnn3C)c2=O)cc1[S+]([O-])CC(F)(F)F` (stereo not drawn) [Compound 2, 5-{2-Fluoro-4-methyl-5-[(2,2,2-trifluoroethyl)sulphinyl]phenyl}-1-methyl-1,5-dihydro-4H-pyrazolo[3,4-d]pyrimidin-4-one], the chromatographic logP turned out to be 1.73 in data set [1] (setting [8]), 1.73 in data set [1] (setting [9]), 1.69 in data set [1] (setting [10]) and 1.69 in data set [1] (setting [11]). Further, the “efficacy in % (beetle larvae killed)” value in data set [2] is listed as 100%. Also, the “efficacy in % (spider mites killed)” value in data set [6] turned out to be 100%. Further, in data set [7], the “efficacy in % (laying of fertile eggs)” value was 100%.

Regarding `Cc1ccc(-n2cnc3c(c(C)nn3C)c2=O)cc1[S+]([O-])CC(F)(F)F` (racemic) [Compound 33], in data set [1], the “logP[a]” value was 1.79 and the “logP[b]” value came to 1.75. For the same molecule, the “efficacy in % (beetle larvae killed)” value in data set [2] worked out at 100%. For the same molecule, the “efficacy in % (caterpillars killed)” value in data set [3] was determined as 100%. Also, in data set [6], the “efficacy in % (spider mites killed)” value is 90%.

As for `Cc1nn(C)c2ncn(-c3ccc(Cl)c(SCC(F)(F)F)c3)c(=O)c12` [Compound 36], in data set [1], the “logP[a]” value is 2.82 and the “logP[b]” value is recorded as 2.79. Also, in data set [2], the “efficacy in % (beetle larvae killed)” value turned out to be 100%. In data set [3], the “efficacy in % (caterpillars killed)” value turned out to be 83%.

Consider `CCn1cnc2c(=O)n(-c3cc(SCC(F)(F)F)c(C)cc3F)cnc21` [Compound 53], for which, in data set [1], the “logP[a]” value is recorded as 2.46 and the “logP[b]” value worked out at 2.41. Besides, the “efficacy in % (aphids killed)” value in data set [5] was 90%. Moreover, in data set [6], the “efficacy in % (spider mites killed)” value stood at 90%. In addition, the “nematicidal effect in %” value in data set [4] is 100%.

Consider `CCn1ncc2c(=O)n(-c3cc(SCC(F)(F)F)c(C)cc3F)c(C)nc21` [Compound 125], for which, in data set [5], the “efficacy in % (aphids killed)” value is 100%. Besides, the “efficacy in % (spider mites killed)” value in data set [6] was 100%.

In the case of `Cc1cc(F)c(-n2cnc3nn(C)c(C)c3c2=O)cc1[S+]([O-])CC(F)(F)F` (stereo not drawn) [Compound 172], in data set [5], the “efficacy in % (aphids killed)” value is 90%. The “efficacy in % (spider mites killed)” value in data set [6] is on record as 90%. Further, the “efficacy in % (laying of fertile eggs)” value in data set [7] is on record as 100%.
